Experimental findings from patent US20090202508A1, “NEGATIVE REGULATION OF HYPOXIA INDUCIBLE FACTOR 1 BY OS-9” (THE JOHNS HOPKINS UNIVERSITY, priority 2004, published 2009) are described below.

Peptide text beside a SMILES is read from it. * marks the point of attachment. Cbz = O=C(OCc1ccccc1)*

Test [1] has as its target T1, PHD2 (Homo sapiens, UniProt Q9GZT9).
T1 construct: expressed in transfected cells; host or cells: 293 cells (whole cell lysate used as the enzyme source)
Nature of the test: PHD binding assay (pull down of PHD2 with GST-HIF-1α (531-826)). As to conditions: lysates of transfected 293 cells; 1 mM DMOG; FIG. 7B. How it is done: (§1) For in vitro VHL binding assay, preincubated GstA and 5 μl of [^35S]methionine-labeled VHL protein were mixed in a total volume of 300 μl of PBS-T with 1 mM desferrioxamine and incubated at 4° C. for 90 min. 20 ul of glutathione-Sepharose-4B beads (Amersham Biosciences) was added and incubated for 30 min with rotation. Beads were washed three times with PBS-T. Proteins were eluted in Laemmli sample buffer, fractionated by SDS-PAGE, and detected by autoradiography. For PHD binding assay, […] of GST-HIF-1α was preincubated with 50 μg of -whole cell lysate in a total volume of 50 μl with PBS-T at 30° C. for 10 min with or without 1 mM DMOG. The reaction was terminated by addition of desferrioxamine to 1 mM, 20 μl of glutathione-Sepharose-4B beads were added and incubated for 30 min. The beads were washed three times with PBS-T. Bound protein was eluted in Laemmli sample buffer, fractionated by SDS-PAGE, and subjected to immunoblot assay using antibodies against PHD2 (Novus Biologicals Inc.) or GST (Amersham).

Test [2] deals with T1, PHD2. Nature of the test: Prolyl hydroxylation assay / in vitro VHL binding assay with GST-HIF-1α (531-826). It is filed as biochemical. As to conditions: lysates of PHD2/OS-9 transfected 293 cells; 1 mM DMOG; FIG. 7A. On the procedure: [^35S]methionine-labeled VHL protein was synthesized in vitro and GST-HIF-1α (531-826) fusion protein (GstA) was expressed in E. coli. 293 cells were transfected with empty, PHD2, or OS-9 expression vector. After 24 h, cells were washed twice with cold hypotonic extraction buffer containing 20 mM Tris (pH 7.5), 5 mM KCl, 1.5 mM MgCl2, 1 mM dithiothreitol and lysed with hypotonic extraction buffer in a Dounce homogenizer. The cell extract was centrifuged at 10,000×g for 10 min at 4° C., and the supernatant was stored in aliquots at −70° C. GstA (4 μg) was preincubated with whole cell lysate (50 μg) in a total volume of 50 μl with PBS-T at 30° C. for 10 min with or without 1 mM dimethyloxalyl glycine (DMOG). The reaction was terminated by addition of desferrioxamine to 1 mM. One aliquot (0.5 μg of GstA) was used for immunoblot assay using anti-hydroxyproline-564 HIF-1α antibody (Chan et al., 2002). The remainder ([…] of GstA) was used for in vitro VHL binding assay.
as §1

For test [3], the system named is HIF-1α. The experiment in a line: HIF-1α protein levels by immunoblot in transfected 293 cells. Particulars: 293 cells co-transfected with HA-OS-9 and HIF-1α; MG132 10 μM; FIG. 4A. Format: cell-based, human. How it is done:
293 or Hep3B cells were seeded onto 24-well plates at 8×10^4 cells per well of a 24-well plate. The following day, the cells were transfected with plasmid DNAs using Fugene-6 (Roche) for 293 and Lipofectamine Plus (Invitrogen) for Hep3B cells. After 24 h, the cells were exposed to 20% or 1% O2 for 24 h. Cells were lysed, and the luciferase activities were determined by multi-well luminescence reader (PerkinElmer), using the Dual-Luciferase Reporter Assay System (Promega). For p2.1 reporter assay, cells were co-transfected with 15 ng of control reporter pSV-Renilla, 135 ng of HIF-1 reporter p2.1, and expression vector encoding HA-OS-9, HIF-1α, or empty vector. Unless indicated otherwise, 200 ng of HIF-1α, 400 ng of HA-OS-9, 1 ng of PHD2, or 1 ng of HIF-1α triple mutant P402A/P564A/N803A (HIF-1α TM) expression vector was used for co-transfection. For pGalA reporter assays, Hep3B cells were co-transfected with 12.5 ng of pSV-Renilla, reporter 200 ng of pG5ElbLuc, 100 ng of expression vector encoding the GAL4 DNA-binding domain alone or fused to HIF-1α residues 531-826 (Jiang et al. 1997) and empty vector or vector encoding HA-OS-9. For immunoblot assays, 293 cells were seeded at 3×10^6 cells per 10-cm plate. The following day, the cells were co-transfected with expression vectors using Fugene-6. After 24 h, the cells were exposed to 20% or 1% O2 with or without MG132 (10 μM) for 8 h and lysed in 200 μl of lysis buffer containing 50 mM Tris-Cl (pH 8.0), 150 mM NaCl, 5 mM EDTA, 0.1% SDS, 1% NP-40, 0.5% sodium deoxycholate, Complete protease inhibitor cocktail (Roche), sodium orthovanadate, and sodium vanadate (Sigma).

In test [4] the target is T2, HA-OS-9 (hemagglutinin epitope-tagged human OS-9) (human, UniProt Q13438 1-667, 35S-methionine labelled when in vitro-translated).
T2 construct: In vitro-translated in reticulocyte lysate (pull-downs) or expressed in transfected 293 cells (co-IP, lysates); also called HA-tagged OS-9; in vitro-translated OS-9
T2 sequence (looked up): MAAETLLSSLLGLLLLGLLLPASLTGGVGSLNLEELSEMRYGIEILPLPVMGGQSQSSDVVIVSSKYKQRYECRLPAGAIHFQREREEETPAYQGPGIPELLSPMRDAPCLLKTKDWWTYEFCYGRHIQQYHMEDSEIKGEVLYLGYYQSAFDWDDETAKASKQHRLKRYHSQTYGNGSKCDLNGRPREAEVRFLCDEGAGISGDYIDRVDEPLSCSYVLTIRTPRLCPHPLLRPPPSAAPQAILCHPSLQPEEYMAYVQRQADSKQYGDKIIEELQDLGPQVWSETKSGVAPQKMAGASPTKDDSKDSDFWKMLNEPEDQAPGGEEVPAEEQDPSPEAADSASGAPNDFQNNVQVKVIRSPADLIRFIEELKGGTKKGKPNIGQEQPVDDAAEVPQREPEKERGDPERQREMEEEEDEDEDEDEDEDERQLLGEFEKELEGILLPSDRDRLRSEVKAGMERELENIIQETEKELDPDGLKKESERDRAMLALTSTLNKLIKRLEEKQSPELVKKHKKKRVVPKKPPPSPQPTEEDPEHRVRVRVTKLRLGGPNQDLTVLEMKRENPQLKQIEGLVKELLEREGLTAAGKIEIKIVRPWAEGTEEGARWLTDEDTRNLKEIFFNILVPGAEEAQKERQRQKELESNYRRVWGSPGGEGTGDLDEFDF
The experiment in a line: GST pull-down of 35S-labelled in vitro-translated HA-OS-9, SDS-PAGE and autoradiography.

T1 sequence (Q9GZT9 whole entry): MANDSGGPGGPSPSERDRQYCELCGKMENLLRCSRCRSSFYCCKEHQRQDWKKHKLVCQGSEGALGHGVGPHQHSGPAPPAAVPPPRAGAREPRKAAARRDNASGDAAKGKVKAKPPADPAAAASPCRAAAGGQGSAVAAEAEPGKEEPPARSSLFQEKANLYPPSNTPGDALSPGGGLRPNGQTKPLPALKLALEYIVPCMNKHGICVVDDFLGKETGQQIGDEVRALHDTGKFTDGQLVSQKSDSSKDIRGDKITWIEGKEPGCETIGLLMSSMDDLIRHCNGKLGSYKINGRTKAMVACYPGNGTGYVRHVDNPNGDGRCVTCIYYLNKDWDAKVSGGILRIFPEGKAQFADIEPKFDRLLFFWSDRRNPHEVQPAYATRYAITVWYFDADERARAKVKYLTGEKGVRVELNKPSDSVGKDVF

For the molecule `COC(=O)CNC(=O)C(=O)OC` [DMOG, dimethyloxalylglycine, reference compound], in test [1], the “binding of PHD2 to GST-HIF-1α (531-826)” value is “further increased”. In addition, the “binding of VHL to GST-HIF-1α (531-826)” value in test [2] is “completely blocked”.

With `CC(C)C[C@@H](C=O)NC(=O)[C@H](CC(C)C)NC(=O)[C@H](CC(C)C)NC(=O)OCc1ccccc1` [MG 132, reference compound] (Cbz-Leu-Leu-Leu-aldehyde), the “reduction in HIF-1α protein levels associated with OS-9 co-expression” value in test [3] is given as “blocked”.

B1: GST-HIF-1α (786-826) (other, UniProt Q16665 786-826, looked up)
chain: SMDESGLPQLTSYDCEVNAPIQGSRNLLQGEELLRALDQVN
notes: Expressed in E. coli; not shown: glutathione-S-transferase (GST) from a pGEX expression vector
On to B1, for which, in test [4], the binding result is “no binding”.

B2: GST-HIF-1α (531-610) (other, UniProt Q16665 531-610, looked up)
chain: FKLELVEKLFAEDTEAKNPFSTQDTDLDLEMLAPYIPMDDDFQLRSFDQLSPLESSSASPESASPQSTVTVFQQTQIQEP
notes: as for B1
As for B2, the binding result in test [4] is reported as “no binding”.

B3: GST-HIF-1α (429-608) (other, UniProt Q16665 429-608, looked up)
chain: PLYNDVMLPSPNEKLQNINLAMSPLPTAETPKPLRSSADPALNQEVALKLEPNPESLELSFTMPQIQDQTPSPSDGSTRQSSPEPNSPSEYCFYVDSDMVNEFKLELVEKLFAEDTEAKNPFSTQDTDLDLEMLAPYIPMDDDFQLRSFDQLSPLESSSASPESASPQSTVTVFQQTQIQ
notes: as for B1
Consider B3, for which, in test [4], the binding result is “no binding”.
